Details: Liquid; for mass density: Siemens ultrasonic flowmeter; for viscosity: Capillary tube (Ostwald / Ubbelohde) method

CCCCCCC(=O)OCC [ethyl heptanoate]
Details | mass density [kg/m3] | viscosity [mPa·s]
303.1 K, 6000 kPa | 867.7 | –
303.19 K, 14980 kPa | 877.5 | –
303.2 K, 100 kPa | 860.8 | –
303.2 K, 3020 kPa | 864.5 | –
303.2 K, 9010 kPa | 871.2 | –
303.21 K, 11950 kPa | 874.5 | –
312.72 K, 9120 kPa | – | 1.006
312.73 K, 100 kPa | – | 0.9036
312.77 K, 6100 kPa | – | 0.9702
312.8 K, 3100 kPa | – | 0.9452
312.96 K, 100 kPa | 851.2 | –
313.06 K, 3060 kPa | 854.7 | –
313.1 K, 12180 kPa | – | 1.033
313.13 K, 6090 kPa | 858.1 | –
313.17 K, 9070 kPa | 861.4 | –
313.17 K, 15010 kPa | 867.9 | –
313.17 K, 15170 kPa | – | 1.06
313.18 K, 12000 kPa | 864.7 | –
322.62 K, 100 kPa | – | 0.7963
322.71 K, 3120 kPa | – | 0.8252
322.76 K, 15110 kPa | – | 0.9293
322.78 K, 6130 kPa | – | 0.8471
322.85 K, 9090 kPa | – | 0.8702
322.91 K, 12080 kPa | – | 0.9036
323.09 K, 100 kPa | 841.6 | –
323.09 K, 15150 kPa | 859.2 | –
323.1 K, 9100 kPa | 852.5 | –
323.11 K, 3100 kPa | 845.2 | –
323.13 K, 12060 kPa | 855.8 | –
323.14 K, 6110 kPa | 848.8 | –
333.05 K, 100 kPa | 832.1 | –
333.14 K, 3010 kPa | 835.6 | –
333.14 K, 9020 kPa | 843.2 | –
333.14 K, 12010 kPa | 846.8 | –
333.18 K, 6080 kPa | 839.7 | –
333.2 K, 15070 kPa | 850.5 | –
333.42 K, 15070 kPa | – | 0.8106
333.45 K, 100 kPa | – | 0.7016
333.5 K, 12100 kPa | – | 0.7844
333.57 K, 3070 kPa | – | 0.7229
333.6 K, 9160 kPa | – | 0.7629
333.63 K, 6130 kPa | – | 0.7431
343.02 K, 100 kPa | 823 | –
343.06 K, 3010 kPa | 827.1 | –
343.16 K, 100 kPa | – | 0.6217
343.19 K, 15000 kPa | 842.1 | –
343.2 K, 9000 kPa | 834.8 | –
343.22 K, 9070 kPa | – | 0.6801
343.22 K, 12050 kPa | – | 0.6996
343.22 K, 12100 kPa | 838.5 | –
343.23 K, 6050 kPa | 831 | –
343.27 K, 3070 kPa | – | 0.6412
343.27 K, 15120 kPa | – | 0.7191
343.38 K, 6080 kPa | – | 0.6593
352.71 K, 100 kPa | – | 0.5547
352.83 K, 3040 kPa | – | 0.5733
352.85 K, 100 kPa | 815.1 | –
352.86 K, 6100 kPa | – | 0.5898
352.9 K, 9030 kPa | – | 0.6068
352.95 K, 3090 kPa | 819.4 | –
352.95 K, 12080 kPa | – | 0.6227
353.04 K, 15040 kPa | – | 0.6414
353.06 K, 9090 kPa | 827.5 | –
353.11 K, 6070 kPa | 823.2 | –
353.14 K, 12070 kPa | 831.2 | –
353.23 K, 15010 kPa | 835.1 | –

CCCCCCCC(=O)OCC [ethyl octanoate]
Details | mass density [kg/m3] | viscosity [mPa·s]
303.25 K, 100 kPa | 858.1 | –
303.26 K, 12080 kPa | 871 | –
303.3 K, 6080 kPa | 864.4 | –
303.32 K, 3120 kPa | 861.3 | –
303.32 K, 9130 kPa | 867.8 | –
303.33 K, 15080 kPa | 874.1 | –
312.87 K, 100 kPa | – | 1.083
312.96 K, 3120 kPa | – | 1.133
313.03 K, 6060 kPa | – | 1.189
313.05 K, 100 kPa | 849.5 | –
313.08 K, 6150 kPa | 856.1 | –
313.08 K, 9090 kPa | – | 1.211
313.1 K, 9150 kPa | 859.6 | –
313.1 K, 12100 kPa | 862.7 | –
313.11 K, 15110 kPa | 865.9 | –
313.12 K, 3140 kPa | 853 | –
313.12 K, 12070 kPa | – | 1.245
313.14 K, 15240 kPa | – | 1.284
323 K, 100 kPa | 841.1 | –
323.07 K, 100 kPa | – | 0.9464
323.09 K, 3130 kPa | 844.7 | –
323.1 K, 6150 kPa | 848.1 | –
323.13 K, 9110 kPa | 851.4 | –
323.14 K, 12140 kPa | 854.8 | –
323.16 K, 3150 kPa | – | 0.9842
323.16 K, 15050 kPa | 858.1 | –
323.17 K, 6110 kPa | – | 1.016
323.17 K, 9080 kPa | – | 1.043
323.17 K, 12070 kPa | – | 1.064
323.19 K, 15060 kPa | – | 1.098
333 K, 100 kPa | 832.2 | –
333.14 K, 100 kPa | – | 0.8143
333.14 K, 3100 kPa | 836.2 | –
333.18 K, 6080 kPa | 839.7 | –
333.18 K, 9090 kPa | 843.3 | –
333.2 K, 12100 kPa | 846.9 | –
333.21 K, 15100 kPa | 850.3 | –
333.29 K, 3110 kPa | – | 0.8536
333.3 K, 6060 kPa | – | 0.8851
333.3 K, 9130 kPa | – | 0.9101
333.3 K, 15090 kPa | – | 0.9551
333.31 K, 12040 kPa | – | 0.9301
342.78 K, 100 kPa | – | 0.731
343.07 K, 6130 kPa | – | 0.7776
343.1 K, 12150 kPa | 838.8 | –
343.11 K, 100 kPa | 823.6 | –
343.11 K, 3120 kPa | 827.8 | –
343.14 K, 6100 kPa | 831.7 | –
343.16 K, 9070 kPa | 835 | –
343.16 K, 9090 kPa | – | 0.7968
343.17 K, 15000 kPa | 842.1 | –
343.22 K, 12100 kPa | – | 0.8165
343.27 K, 15050 kPa | – | 0.8446
343.41 K, 3120 kPa | – | 0.7572
353.1 K, 100 kPa | 814.5 | –
353.16 K, 9130 kPa | 826.8 | –
353.21 K, 100 kPa | – | 0.6393
353.21 K, 3150 kPa | 819 | –
353.24 K, 15070 kPa | 834.4 | –
353.25 K, 12140 kPa | 830.7 | –
353.27 K, 6150 kPa | 823 | –
353.32 K, 3120 kPa | – | 0.6742
353.35 K, 6090 kPa | – | 0.691
353.35 K, 12080 kPa | – | 0.7292
353.36 K, 15060 kPa | – | 0.7479
353.38 K, 9070 kPa | – | 0.707

Source: the NIST ThermoML archive (doi:10.1021/acs.jced.7b00386)
